Among the data in US9630958B2, “Triazine compounds” (Sphaera Pharma Pte. Ltd., priority 2012, dated 2017) are IC50 and inhibition values, retold here.

Test [1] concerns the target T1, Recombinant mTOR (FRAP1) (Homo sapiens, UniProt P42345).
T1 construct: purchased Invitrogen
As to the kind of experiment: mTOR in vitro kinase assay (TR-FRET, phosphorylation of GFP-4E-BP1). It counts as biochemical. As to conditions: for IC50: 8 μM ATP, 400 nM GFP-4E-BP1; for inhibition at 1 µM: 1 uM compound, read-out: mTOR % Inhib@1 uM. As to the method:
Compounds were evaluated for mTOR activity using an in vitro kinase assay.
mTOR activity is measured in vitro by determining the level of phosphorylation of the protein substrate 4EBP-1. The phosphorylation of GFP-4E-BP1 at threonine residue is recognized by Ab Tb-Anti-p4EBP1, which results in time resolved fluorescence energy transfer (TR-FRET) between GFP and Terbium in the Ab-Protein complex.
Recombinant mTOR (FRAP1), Kinase reaction buffer, GFP-4E-BP1 and LanthaScreen Tb-anti-4E-BP1 (pThr46), TR FRET dilution buffer, Kinase Quench Buffer were obtained from Invitrogen.
Kinase reactions were performed in 10 μl volume in Corning white 384 well plates. […] The reaction was initiated by the addition of substrate (GFP-4E-BP1) and ATP at a final conc. of 400 nM and 8 μM ATP in the reaction respectively. The kinase reaction was allowed to proceed for 1 hour at room temperature before a 10 μL preparation of kinase quench buffer and Tb-labeled Antibody in TR-FRET dilution buffer was added. The final concentration of the antibody in the assay well is 2 nM and the final concentration of EDTA is 10 mM. The plate was incubated at room temperature for 1 h.
(§1) FRET signal was read in Envision Multilabel Reader with the following filters:
Excitation-330 nm and Emission 486 nm (donor) and 520 nm (acceptor).
TR FRET Ratio (Fluorescence 520 nm/Fluorescence 486 nm) was plotted against the concentration of inhibitor and data was fit to Non Linear Regression curve fit (sigmoidal dose response curve with variable slope-four parameters) using Graph Pad Prism 5.

In test [2] the target is T2, PI3 Kinase alpha (p110 alpha/p85 alpha) (Homo sapiens, UniProt P42336).
T2 construct: purchased Invitrogen
T2 sequence (P42336 whole entry): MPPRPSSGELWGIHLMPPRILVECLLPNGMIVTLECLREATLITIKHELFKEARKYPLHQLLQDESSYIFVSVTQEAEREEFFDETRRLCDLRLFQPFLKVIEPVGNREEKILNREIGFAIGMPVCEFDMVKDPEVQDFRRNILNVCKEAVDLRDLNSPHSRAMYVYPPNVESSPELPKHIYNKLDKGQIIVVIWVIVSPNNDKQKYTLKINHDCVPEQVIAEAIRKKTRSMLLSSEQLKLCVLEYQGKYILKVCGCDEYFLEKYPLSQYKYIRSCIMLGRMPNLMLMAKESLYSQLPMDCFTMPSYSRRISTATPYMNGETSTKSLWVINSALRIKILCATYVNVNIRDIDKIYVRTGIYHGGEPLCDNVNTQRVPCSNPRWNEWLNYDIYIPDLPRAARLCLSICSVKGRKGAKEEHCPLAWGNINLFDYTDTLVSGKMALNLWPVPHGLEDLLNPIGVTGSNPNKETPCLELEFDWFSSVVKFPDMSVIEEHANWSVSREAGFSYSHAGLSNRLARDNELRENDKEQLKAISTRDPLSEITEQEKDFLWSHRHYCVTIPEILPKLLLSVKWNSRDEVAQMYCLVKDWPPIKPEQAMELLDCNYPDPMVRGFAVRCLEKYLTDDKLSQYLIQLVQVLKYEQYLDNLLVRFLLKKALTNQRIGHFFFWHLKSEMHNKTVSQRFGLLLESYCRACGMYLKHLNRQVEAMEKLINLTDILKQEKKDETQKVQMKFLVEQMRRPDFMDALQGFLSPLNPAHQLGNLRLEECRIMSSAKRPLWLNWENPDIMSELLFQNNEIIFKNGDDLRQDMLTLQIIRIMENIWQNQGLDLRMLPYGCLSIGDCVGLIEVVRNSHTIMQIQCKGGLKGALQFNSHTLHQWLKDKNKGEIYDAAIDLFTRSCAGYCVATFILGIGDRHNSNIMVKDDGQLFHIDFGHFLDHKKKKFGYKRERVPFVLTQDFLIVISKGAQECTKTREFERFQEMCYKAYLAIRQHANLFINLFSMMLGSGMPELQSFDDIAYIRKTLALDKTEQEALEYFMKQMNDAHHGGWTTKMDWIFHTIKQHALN
T2 sequence (P27986 whole entry partner): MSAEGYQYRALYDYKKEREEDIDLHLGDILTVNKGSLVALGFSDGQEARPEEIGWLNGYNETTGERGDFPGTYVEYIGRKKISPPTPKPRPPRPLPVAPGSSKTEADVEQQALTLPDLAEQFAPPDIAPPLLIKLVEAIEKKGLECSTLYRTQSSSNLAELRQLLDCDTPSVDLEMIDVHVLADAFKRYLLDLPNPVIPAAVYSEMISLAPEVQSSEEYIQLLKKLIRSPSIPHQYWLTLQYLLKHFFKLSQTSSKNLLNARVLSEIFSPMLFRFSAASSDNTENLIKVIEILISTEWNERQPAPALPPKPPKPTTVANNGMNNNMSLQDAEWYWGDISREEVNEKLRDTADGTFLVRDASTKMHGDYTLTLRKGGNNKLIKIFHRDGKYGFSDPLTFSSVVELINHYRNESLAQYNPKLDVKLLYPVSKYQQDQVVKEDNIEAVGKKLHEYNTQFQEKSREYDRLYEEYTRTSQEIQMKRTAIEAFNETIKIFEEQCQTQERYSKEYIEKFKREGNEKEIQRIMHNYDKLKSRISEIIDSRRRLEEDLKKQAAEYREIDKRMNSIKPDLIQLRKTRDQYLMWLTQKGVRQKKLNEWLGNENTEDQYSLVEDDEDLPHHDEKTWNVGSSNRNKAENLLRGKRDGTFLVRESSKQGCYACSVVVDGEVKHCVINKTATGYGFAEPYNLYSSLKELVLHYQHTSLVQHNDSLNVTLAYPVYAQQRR
The test is described as follows: PI3K TR-FRET assay (Transcreener ADP2). It counts as biochemical. As to conditions: for IC50: PI3K alpha, 1 μM ATP, 50 μM PIP2; for inhibition at 1 µM: 1 uM compound, read-out: PI3K % Inhib@1 uM. As to the method: Enzymatic activity of PI3K alpha was measured using Time resolved Fluorescence resonance energy transfer (TR-FRET) assay. This assay utilizes ADP detection as a means to screen inhibitor potency of compounds. The Transcreener ADP2 TR-FRET Red Assay is a competitive immunoassay for ADP with a far-red, TR-FRET readout and it has been used for this purpose. The assay can be used for any enzyme class that produces ADP (Kinases, ATPases). It consists of ADP HiLyte647 Tracer, ADP^2 Antibody-Tb conjugate (800 nM), stop & detect buffer, 5 mM ATP, 5 mM ADP. The ADP HiLyte647 Tracer is bound to an ADP^2 Antibody-Tb conjugate. The excitation of the terbium complex in the UV range results in energy transfer to the tracer and emission at a higher wavelength after a time delay ADP produced by the target enzyme displaces the tracer which causes decrease in TR-FRET.
The reaction buffer used for the assay was 50 mM HEPES, pH 7.4.3 mM MgCl2, 0.05% CHAPS, 50 mM NaCl, 2 mM DTT, 1 mM EGTA. PI3 Kinase alpha (p110 alpha/p85 alpha) and PIP2 Substrate (diC8,) were procured from Invitrogen and Echelon respectively.
Kinase reactions were performed in 10 μl volume in Corning white 384 well plates. […] Reaction was initiated by the addition of substrate (PIP2) and ATP at final conc. of 50 μM and 1 μM ATP in the reaction respectively. Kinase reactions were allowed to proceed for 1 hour at room temperature before a 10 μL preparation of Transcreener ADP detection mix was added. Plate was incubated at room temperature for 1 hr. ADP-ATP standard curves were also prepared.
as §1
Excitation-330 nm and Emission 615 nm (donor) and 665 nm (acceptor). TR FRET Ratio (Fluorescence 665 nm/Fluorescence 615 nm) was converted to amount of product formed using the standard curve generated. Percentage inhibition was calculated and plotted against the concentration of inhibitor and data was fit to Non Linear Regression curve fit (sigmoidal dose response curve with variable slope-four parameters) using Graph pad prism 5 and IC50 was calculated for the compound.
Background: In TR-FRET formats the signal depends on donor and acceptor labels being close together.

T1 sequence (P42345 1360-2549 limits assumed): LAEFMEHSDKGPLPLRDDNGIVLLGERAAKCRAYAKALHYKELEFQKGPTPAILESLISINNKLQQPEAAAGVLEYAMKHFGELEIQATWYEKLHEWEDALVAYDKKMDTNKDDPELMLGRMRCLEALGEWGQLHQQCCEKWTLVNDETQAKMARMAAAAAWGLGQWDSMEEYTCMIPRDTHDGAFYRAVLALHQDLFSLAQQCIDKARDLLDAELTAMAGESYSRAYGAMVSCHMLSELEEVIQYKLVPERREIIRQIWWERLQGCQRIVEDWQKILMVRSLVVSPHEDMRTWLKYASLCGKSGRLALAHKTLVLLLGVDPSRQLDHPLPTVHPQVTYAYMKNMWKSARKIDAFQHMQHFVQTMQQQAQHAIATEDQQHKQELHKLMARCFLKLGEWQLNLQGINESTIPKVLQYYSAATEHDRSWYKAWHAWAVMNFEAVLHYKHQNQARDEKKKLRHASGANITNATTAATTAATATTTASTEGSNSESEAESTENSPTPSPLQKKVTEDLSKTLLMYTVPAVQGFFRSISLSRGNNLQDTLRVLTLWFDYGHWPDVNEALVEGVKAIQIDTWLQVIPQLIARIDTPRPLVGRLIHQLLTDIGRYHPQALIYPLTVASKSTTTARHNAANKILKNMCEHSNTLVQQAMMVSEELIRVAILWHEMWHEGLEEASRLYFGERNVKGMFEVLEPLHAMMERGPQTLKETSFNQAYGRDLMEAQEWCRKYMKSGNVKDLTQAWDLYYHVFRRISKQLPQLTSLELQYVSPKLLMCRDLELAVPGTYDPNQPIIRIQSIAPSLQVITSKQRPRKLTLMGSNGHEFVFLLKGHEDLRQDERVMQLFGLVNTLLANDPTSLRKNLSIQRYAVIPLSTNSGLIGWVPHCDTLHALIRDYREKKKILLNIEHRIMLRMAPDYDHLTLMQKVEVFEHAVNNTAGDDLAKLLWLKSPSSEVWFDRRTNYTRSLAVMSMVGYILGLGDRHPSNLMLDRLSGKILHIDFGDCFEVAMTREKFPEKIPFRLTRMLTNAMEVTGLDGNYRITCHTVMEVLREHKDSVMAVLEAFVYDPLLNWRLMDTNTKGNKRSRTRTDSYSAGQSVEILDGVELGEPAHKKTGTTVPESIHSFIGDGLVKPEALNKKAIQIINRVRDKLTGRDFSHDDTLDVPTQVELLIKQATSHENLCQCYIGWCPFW

In general, IC50 refers to the concentration that gives 50% inhibition. Turning to `C[C@H]1COCCN1c1nc(Oc2ccc(C(=O)N(C)C)cc2F)nc(-c2cnc(N)cc2C(F)(F)F)n1` [Compound 10067, (S)-4-((4-(6-Amino-4-(trifluoromethyl)pyridine-3-yl)-6-(3-methylmorpholino)-1,3,5-triazin-2-yl)oxy)-3-fluoro-N,N-dimethylbenzamide], the IC50 in test [1] and in test [2] was under 1000 nM throughout.
Take `CN(C)C(=O)N1CCC(Oc2nc(-c3ccc(N)nc3)nc(N3CCOCC3)n2)CC1` [Compound 10021, 4-(4-(6-aminopyridin-3-yl)-6-morpholino-1,3,5-triazin-2-yloxy)-N,N-dimethylpiperidine-1-carboxamide]: in test [1], the inhibition at 1 µM is over 50% and the IC50 is under 1000 nM. Besides, in test [2], the 50% inhibitory concentration (IC50) is under 1000 nM.
Consider `C[C@@H]1CN(c2nc(Oc3ccc(C(=O)N(C)C)cc3F)nc(-c3cnc(N)s3)n2)C[C@H](C)O1` [Compound 10069], for which the IC50 in test [1] is under 1000 nM; in test [2] it was over 1000 nM.
Take `Cc1cc(Oc2nc(-c3ccc(N)nc3)nc(N3CCOCC3)n2)ccc1C(=O)N(C)C` [Compound 10181, 4-((4-(6-aminopyridin-3-yl)-6-morpholino-1,3,5-triazin-2-yl)oxy)-N,N,2-trimethylbenzamide]: in test [1], the inhibition at 1 µM is over 50% and the IC50 was under 1000 nM. In test [2], the IC50 is under 1000 nM.
In the case of `C[C@H]1COCCN1c1nc(Oc2ccc(C(=O)N(C)C)cc2)nc(-c2cnc(NC(=O)NC3CC3)s2)n1` [Compound 10093], the IC50 in test [1] was under 1000 nM. In test [2], the inhibition at 1 µM is over 50% and the IC50 is under 1000 nM.
Turning to `CNC(=O)Nc1ncc(-c2nc(NC)nc(N3CCOC[C@@H]3C)n2)s1` [Compound 10135, 1-methyl-3-(5-(4-(methylamino)-6-((S)-3-methylmorpholino)-1,3,5-triazin-2-yl)thiazol-2-yl)urea], the inhibition at 1 µM in test [1] and in test [2] was under 50% in each case.
With `CN(C)C(=O)c1ccc(Oc2nc(-c3cnc(N)s3)nc(N3CCNC(=O)CC3)n2)cc1` [Compound 10071, 4-((4-(2-Aminothiazol-5-yl)-6-(5-oxo-1,4-diazepan-1-yl)-1,3,5-triazin-2-yl)oxy)-N,N-dimethylbenzamide], the inhibition at 1 µM in test [1] and in test [2] was under 50% throughout.
As to `C[C@H]1COCCN1c1nc(Oc2ccc(C(=O)N(C)C)cc2)nc(-c2cnc3[nH]ccc3c2)n1` [Compound 10157, 4-(4-((S)-3-methylmorpholino)-6-(1H-pyrrolo[2,3-b]pyridin-5-yl)-1,3,5-triazin-2-yloxy)-N,N-dimethylbenzamide], the IC50 in test [1] and in test [2] was under 1000 nM in each case.
Regarding `C[C@H]1COCCN1c1nc(O[C@H]2CC[C@H](C(=O)N(C)C)CC2)nc(-c2cnc(N)s2)n1` [Compound 10139, (1S,4r)-4-(4-(2-aminothiazol-5-yl)-6-((S)-3-methylmorpholino)-1,3,5-triazin-2-yloxy)-N,N-dimethylcyclohexanecarboxamide], in test [1], the inhibition at 1 µM is over 50%. In addition, the IC50 in test [1] and in test [2] was under 1000 nM in each case.
Regarding `C[C@H]1COCCN1c1nc(OC2CCN(C(=O)N(C)C)CC2)nc(-c2cnc(N)s2)n1` [Compound 10137, 4-(4-(2-aminothiazol-5-yl)-6-((S)-3-methylmorpholino)-1,3,5-triazin-2-yloxy)-N,N-dimethylpiperidine-1-carboxamide], in test [1], the inhibition at 1 µM was over 50%. Besides, the IC50 in test [1] and in test [2] was under 1000 nM throughout.
As to `CN(C)C(=O)c1ccc(Oc2nc(-c3cnc(N)s3)nc(N3CCOc4ccccc43)n2)cc1` [Compound 10029, 4-(4-(2-aminothiazol-5-yl)-6-(2H-benzo[b][1,4]oxazin-4(3H)-yl)-1,3,5-triazin-2-yloxy)-N,N-dimethylbenzamide], in test [1], the inhibition at 1 µM was over 50% and the IC50 is under 1000 nM. Further, in test [2], the inhibition at 1 µM was under 50% and the IC50 is over 1000 nM.
Take `CS(=O)(=O)N1CCC(COc2nc(-c3ccc(N)nc3)nc(N3CCOCC3)n2)CC1` [Compound 10185, 5-(4-((1-(methylsulfonyl)piperidin-4-yl)methoxy)-6-morpholino-1,3,5-triazin-2-yl)pyridin-2-amine]: in test [1], the inhibition at 1 µM was under 50%. This compound came in with an IC50 in test [2] of under 1000 nM.
Take `CS(=O)(=O)N1CCC(COc2nc(-c3cnc(N)s3)nc(N3CCOCC3)n2)C1` (stereo not drawn) [Compound 10197, 5-(4-((1-(methylsulfonyl)pyrrolidin-3-yl)methoxy)-6-morpholino-1,3,5-triazin-2-yl)thiazol-2-amine]: the inhibition at 1 µM in test [1] was under 50%. The IC50 in test [2] was under 1000 nM.
`C[C@H]1CN(c2nc(Oc3ccc(C(=O)N(C)C)cc3F)nc(-c3cnc(N)s3)n2)[C@@H](C)CO1` [Compound 10153, 4-(4-(2-aminothiazol-5-yl)-6-((2S,5S)-2,5-dimethylmorpholino)-1,3,5-triazin-2-yloxy)-3-fluoro-N,N-dimethylbenzamide]: the IC50 in test [1] is under 1000 nM. Also, in test [2], the inhibition at 1 µM is under 50% and the half-maximal inhibitory concentration (IC50) is under 1000 nM.
Take `CN(C)C(=O)c1ccc(Oc2nc(-c3ccc4[nH]ncc4c3)nc(N3C4CCC3COC4)n2)c(F)c1` [Compound 10136, 4-(4-(3-oxa-8-aza-bicyclo[3.2.1]octan-8-yl)-6-(1H-indazol-5-yl)-1,3,5-triazin-2-yloxy)-3-fluoro-N,N-dimethylbenzamide]: in test [1], the inhibition at 1 µM was over 50% and the IC50 is under 1000 nM. In test [2], the inhibition at 1 µM is under 50% and the IC50 was over 10000 nM.
`CN(C)C(=O)c1ccc(Oc2nc(-c3ccc4[nH]ncc4c3)nc(N3CC4CCC(C3)O4)n2)c(F)c1` [Compound 10140, 4-(4-(8-oxa-3-aza-bicyclo[3.2.1]octan-3-yl)-6-(1H-indazol-5-yl)-1,3,5-triazin-2-yloxy)-3-fluoro-N,N-dimethylbenzamide]: in test [1], the inhibition at 1 µM was over 50% and the IC50 is under 1000 nM. In test [2], this compound registered an IC50 of over 10000 nM.
Turning to `CN(C)C(=O)c1ccc(Oc2nc(-c3cnc(N)s3)nc(N3CCO[C@H]4CCC[C@@H]43)n2)c(F)c1` [Compound 10146, 4-(4-(2-aminothiazol-5-yl)-6-((4aS,7aS)-hexahydrocyclopenta[b][1,4]oxazin-4(4aH)-yl)-1,3,5-triazin-2-yloxy)-3-fluoro-N,N-dimethylbenzamide], the IC50 in test [1] and in test [2] was under 1000 nM in each case.
For `C[C@@H]1CO[C@@H](C)CN1c1nc(Oc2ccc(C(=O)N(C)C)cc2F)nc(-c2ccc3[nH]ncc3c2)n1` [Compound 10161, 4-(4-(1H-indazol-5-yl)-6-((2S,5R)-2,5-dimethylmorpholino)-1,3,5-triazin-2-yloxy)-3-fluoro-N,N-dimethylbenzamide], the figures for the IC50 in test [1] and in test [2] were under 1000 nM and over 10000 nM, respectively.
Regarding `CN(C)C(=O)c1ccc(Oc2nc(-c3cnc(N)s3)nc(N3CCNC(=O)C3)n2)cc1` [Compound 10072, 4-((4-(2-Aminothiazol-5-yl)-6-(3-oxopiperazin-1-yl)-1,3,5-triazin-2-yl)oxy)-N,N-dimethylbenzamide], the inhibition at 1 µM in test [1] and in test [2] was under 50% each time.
As to `C[C@H]1COCCN1c1nc(Oc2ccc(C(=O)N(C)C)cc2F)nc(-c2ccc(N)nc2)n1` [Compound 10058, (S)-4-((4-(6-Aminopyridin-3-yl)-6-(3-methylmorpholino)-1,3,5-triazin-2-yl)oxy)-3-fluoro-N,N-dimethylbenzamide], the IC50 in test [1] and in test [2] was under 1000 nM in each case.
